Columns and labels:
[1] = target: human recombinant beta-secretase (hBACE1) (Homo sapiens (Human), UniProt P56817); assay: FRET assay, inhibition of human recombinant beta-secretase; format: biochemical
Protocol: The FRET assay [Vassar, et al.] was used to test activity using 384-well black plates and a microplate reader (EnSpire Multimode; PerkinElmer; Waltham, MA, USA). The test was purchased from Life Technologies Polska Sp. z o.o. (Warsaw, Poland). […] Stock solutions of test compounds were prepared in DMSO and then further diluted with assay buffer (50 mM sodium acetate; pH 4.5) to the appropriate concentrations in the wells. In the first step of the test, 10 μl of the substrate (Rh-[…] quencher, based on the so-called Swedish APP mutation) was mixed with 10 μl of the test compound (or assay buffer; for blank sample). The enzyme reaction was initiated by adding 10 μl of enzyme (hBACE1, 1 U/ml). The reaction mixture was incubated at 25° C. for 60 minutes, then 10 μL of Stop solution (2.5 M sodium acetate) was added. After stopping the reaction, fluorescence was measured at 576 nm. The percentage of enzyme inhibition was calculated from the formula [1−(S60−S0)/(C60−C0)]×100, where S0 and S60 are the fluorescence of the test sample (containing the enzyme, substrate and test compound) at the start of the reaction and after 60 minutes, respectively, whereas C0 and C60 were analogous fluorescence intensities in the blank samples (containing enzyme, substrate and buffer). All test compounds were tested at a concentration of 50 μM in triplicate. […] A BACE1 IV inhibitor (Calbiochem, Merck; Nottingham, UK) [Stachel et al.] was used as a reference compound. […] IC50 values for all test compounds were calculated using non-linear regression (GraphPad Prism 5 [GraphPad Software, San Diego, CA, USA 5.00]) for the percentage of enzyme inhibition against the inhibitor concentration used.

[2] = target: Recombinant human Aβ1-42 peptide (Homo sapiens (Human), UniProt P05067); assay: Thioflavin T test, antiaggregation activity against beta-amyloid; format: biochemical; details: 10 μM test compound, 1.5 μM Aβ1-42; read-out: inh. Aβ aggr. % inh
Recombinant human Aβ1-42 peptide, sequence (P05067 672-713): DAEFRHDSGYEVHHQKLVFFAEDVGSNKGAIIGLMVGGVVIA
Protocol: The thioflavin T test [Levine III] was used for the determinations. Recombinant human Aβ1-42 peptide (HFIP pretreated, Merck Millipore, Darmstadt, Germany) was dissolved in DMSO to form a 75 μM stock solution. The solution was further diluted in HEPES buffer (150 mM HEPES, pH 7.4, 150 mM NaCl) to a concentration of 7.5 μM. Then, the Aβ1-42 solution was added to the test compounds (black 96-well plates were used) and diluted with thioflavin T solution (10 μM final concentration). The final mixture contained 1.5 μM Aβ1-42, 10 μM test compound, and 3% of DMSO. Fluorescence was measured every 300 s (excitation wavelength was 440 nm, emission wavelength was 490 nm) with continuous mixing between measurements. A multifunction microplate reader (Synergy H4; BioTek Instruments, Inc., Winooski, VT, USA) was used to measure the fluorescence. Fluorescence started increasing after approximately 4 hours, plateaued after 20 hours and remained virtually unchanged for the next 28 hours of incubation. The plateau-phase fluorescence intensities (in the presence and absence of test compounds) were averaged and the mean fluorescence values for the respective wells at t=0 h were subtracted from them. […] IC50 values were calculated using non-linear regression (GraphPad Prism 5 [GraphPad Software, San Diego, CA, USA 5.00]) for the percentage of aggregation inhibition against the inhibitor concentration used.

[3] = target: human plasma butyrylcholinesterase (hBuChE) (Homo sapiens (Human), UniProt P06276); assay: Ellman's test, inhibition of human plasma butyrylcholinesterase; format: biochemical
human plasma butyrylcholinesterase (hBuChE), sequence (P06276 29-602): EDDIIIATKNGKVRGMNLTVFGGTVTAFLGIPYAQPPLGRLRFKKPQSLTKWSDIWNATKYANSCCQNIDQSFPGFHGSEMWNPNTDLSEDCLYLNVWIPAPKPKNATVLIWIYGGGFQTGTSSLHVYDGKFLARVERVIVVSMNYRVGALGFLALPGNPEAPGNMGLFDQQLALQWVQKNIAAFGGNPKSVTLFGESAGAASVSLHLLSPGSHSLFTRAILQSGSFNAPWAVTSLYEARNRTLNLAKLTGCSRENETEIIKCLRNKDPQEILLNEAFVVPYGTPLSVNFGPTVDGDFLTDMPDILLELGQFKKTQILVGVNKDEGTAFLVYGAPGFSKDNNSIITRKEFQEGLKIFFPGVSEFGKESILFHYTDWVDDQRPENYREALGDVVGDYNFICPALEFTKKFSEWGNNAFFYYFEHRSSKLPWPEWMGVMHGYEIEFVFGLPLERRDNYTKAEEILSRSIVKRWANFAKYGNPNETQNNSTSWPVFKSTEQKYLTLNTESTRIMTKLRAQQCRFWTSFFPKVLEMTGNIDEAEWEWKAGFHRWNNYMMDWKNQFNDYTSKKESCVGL
Protocol: (§1) The spectrophotometric Ellman's test [Ellman et al.] modified for assays in 96-well plates was used to test the activity. Reagents: 5,5′-dithiobis-(2-nitrobenzoic acid) (DTNB), eqBuChE and butyrylthiocholine iodide (BTC) were purchased from Sigma-Aldrich (Steinheim, Germany). hBuChE was from Vivonics (Bedford, MA, USA). The enzymes were prepared by dissolving in demineralized water to a concentration of 0.384 U/ml. Stock solutions of test compounds were prepared by dissolving in DMSO to a concentration of 0.0034 M. They were then diluted with water to obtain the appropriate concentrations in the wells. In the first step of the test, 25 μl of test compound (or DMSO/water mixture at the appropriate ratio for blank samples) was incubated in 0.1 M phosphate buffer (200 μl, pH=8.0) with DTNB (20 μl; 0.0025M) and with the appropriate enzyme (20 μl; eqBuChE or hBuChE) at 25° C. (animal enzyme) or 36° C. (human enzyme). After a 5 minutes incubation period, 20 μl of BTC solution (0.00375 M) was added. After another 5 minutes, the changes in absorbance of the solutions were measured at 412 nm using a multifunctional microplate reader (EnSpire Multimode; PerkinElmer; Waltham, MA, USA). All compounds were tested at a screening concentration of 10 μM (eqBuChE) or 1 μM (hBuChE). The percentage of enzyme inhibition was calculated from the equation 100-(S/B)×100, where S and B were the enzymatic activity in the test sample well and in the well without sample, respectively. […] All reactions were performed in triplicate. IC50 values were calculated using non-linear regression (GraphPad Prism 5 [GraphPad Software, San Diego, CA, USA 5.00]) for the percentage of enzyme inhibition against the inhibitor concentration used. Tacrine and donepezil were used as reference compounds.

[4] = target: mGAT2 (Mus musculus (Mouse), UniProt P31651); assay: [3H]GABA uptake inhibition, mGAT2 in HEK293 cells; format: cell-based; details: inhibitor at 100 μM; remaining reuptake
mGAT2, sequence (P31651 whole entry): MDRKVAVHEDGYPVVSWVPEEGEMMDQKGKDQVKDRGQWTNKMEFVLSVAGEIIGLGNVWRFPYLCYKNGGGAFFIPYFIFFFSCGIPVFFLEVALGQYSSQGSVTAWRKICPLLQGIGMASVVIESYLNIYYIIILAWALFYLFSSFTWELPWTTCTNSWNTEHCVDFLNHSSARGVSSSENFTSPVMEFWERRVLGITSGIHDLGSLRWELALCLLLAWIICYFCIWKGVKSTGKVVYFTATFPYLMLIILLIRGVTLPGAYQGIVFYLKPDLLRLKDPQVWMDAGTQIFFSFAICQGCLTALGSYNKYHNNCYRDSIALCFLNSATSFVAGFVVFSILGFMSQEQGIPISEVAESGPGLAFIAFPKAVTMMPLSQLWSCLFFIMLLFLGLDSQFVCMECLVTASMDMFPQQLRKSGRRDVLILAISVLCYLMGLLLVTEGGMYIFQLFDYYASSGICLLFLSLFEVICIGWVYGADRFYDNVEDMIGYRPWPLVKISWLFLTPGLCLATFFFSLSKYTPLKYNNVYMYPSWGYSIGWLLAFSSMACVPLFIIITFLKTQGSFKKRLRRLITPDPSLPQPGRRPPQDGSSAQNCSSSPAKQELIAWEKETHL
Protocol: (§2) Exemplary compounds according to the invention were screened at the Ludwig-Maximilian University of Munich to determine the inhibitory ability towards four mouse GAT transporters (mGAT1-mGAT4). […] The biological material was stably transfected human embryonic kidney HEK293 cells, expressing genes to the appropriate transporters. The generated radioactivity was measured with a liquid scintillation counter. […] These determinations were made according to the procedure described in detail in A. Kragler, G. Höfner, K. T. Wanner, Novel parent structures for inhibitors of the murine GABA transporters mGAT3 and mGAT4, Eur. J. Pharmacol. 519 (2005) 43-47.

[5] = target: mGAT1 (Mus musculus (Mouse), UniProt P31648); assay: [3H]GABA uptake inhibition, mGAT1 in HEK293 cells; format: cell-based; details: GABA reuptake
Protocol: as §2

[6] = target: horse plasma butyrylcholinesterase (eqBuChE) (Equus caballus (Horse), UniProt P81908); assay: Ellman's test, inhibition of horse plasma butyrylcholinesterase; format: biochemical
horse plasma butyrylcholinesterase (eqBuChE), sequence (P81908 whole entry): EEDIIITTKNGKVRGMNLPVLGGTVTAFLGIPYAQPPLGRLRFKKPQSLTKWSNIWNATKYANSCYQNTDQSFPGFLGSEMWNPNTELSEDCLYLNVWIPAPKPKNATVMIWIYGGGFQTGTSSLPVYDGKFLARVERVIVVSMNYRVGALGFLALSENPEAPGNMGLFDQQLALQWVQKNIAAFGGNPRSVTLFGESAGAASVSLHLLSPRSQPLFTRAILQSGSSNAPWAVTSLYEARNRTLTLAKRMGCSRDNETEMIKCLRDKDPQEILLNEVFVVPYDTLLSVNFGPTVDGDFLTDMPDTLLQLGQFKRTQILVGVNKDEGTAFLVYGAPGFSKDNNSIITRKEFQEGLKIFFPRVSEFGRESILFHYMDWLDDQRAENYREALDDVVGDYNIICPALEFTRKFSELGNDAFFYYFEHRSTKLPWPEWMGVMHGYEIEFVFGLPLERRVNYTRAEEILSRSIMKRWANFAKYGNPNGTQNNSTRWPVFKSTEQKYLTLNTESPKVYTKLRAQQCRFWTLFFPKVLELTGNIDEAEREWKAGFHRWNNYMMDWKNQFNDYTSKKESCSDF
Protocol: as §1

[7] = target: mGAT3 (Mus musculus (Mouse), UniProt P31649); assay: [3H]GABA uptake inhibition, mGAT3 in HEK293 cells; format: cell-based; details: GABA reuptake
mGAT3, sequence (P31649 whole entry): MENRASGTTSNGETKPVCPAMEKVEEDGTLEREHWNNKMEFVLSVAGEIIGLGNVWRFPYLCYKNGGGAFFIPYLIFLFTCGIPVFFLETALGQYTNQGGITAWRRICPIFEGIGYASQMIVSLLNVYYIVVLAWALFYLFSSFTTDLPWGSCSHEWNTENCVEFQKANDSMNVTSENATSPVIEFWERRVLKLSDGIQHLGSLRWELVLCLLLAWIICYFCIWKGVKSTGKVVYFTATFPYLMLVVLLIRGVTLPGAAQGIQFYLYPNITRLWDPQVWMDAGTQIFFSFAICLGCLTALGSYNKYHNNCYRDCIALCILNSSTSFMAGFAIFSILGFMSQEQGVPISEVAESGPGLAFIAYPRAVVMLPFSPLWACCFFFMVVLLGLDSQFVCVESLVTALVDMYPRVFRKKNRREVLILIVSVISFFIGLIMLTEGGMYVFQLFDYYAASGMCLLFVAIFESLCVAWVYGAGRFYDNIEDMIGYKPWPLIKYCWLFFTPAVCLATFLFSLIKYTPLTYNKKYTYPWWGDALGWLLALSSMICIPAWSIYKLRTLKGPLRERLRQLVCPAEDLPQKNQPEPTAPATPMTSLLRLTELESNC
Protocol: as §2

[8] = target: mGAT4 (Mus musculus (Mouse), UniProt P31650); assay: [3H]GABA uptake inhibition, mGAT4 in HEK293 cells; format: cell-based; details: GABA reuptake; read-out: pIC50 (+/−SEM) mGAT4 (converted)
mGAT4, sequence (P31650 whole entry): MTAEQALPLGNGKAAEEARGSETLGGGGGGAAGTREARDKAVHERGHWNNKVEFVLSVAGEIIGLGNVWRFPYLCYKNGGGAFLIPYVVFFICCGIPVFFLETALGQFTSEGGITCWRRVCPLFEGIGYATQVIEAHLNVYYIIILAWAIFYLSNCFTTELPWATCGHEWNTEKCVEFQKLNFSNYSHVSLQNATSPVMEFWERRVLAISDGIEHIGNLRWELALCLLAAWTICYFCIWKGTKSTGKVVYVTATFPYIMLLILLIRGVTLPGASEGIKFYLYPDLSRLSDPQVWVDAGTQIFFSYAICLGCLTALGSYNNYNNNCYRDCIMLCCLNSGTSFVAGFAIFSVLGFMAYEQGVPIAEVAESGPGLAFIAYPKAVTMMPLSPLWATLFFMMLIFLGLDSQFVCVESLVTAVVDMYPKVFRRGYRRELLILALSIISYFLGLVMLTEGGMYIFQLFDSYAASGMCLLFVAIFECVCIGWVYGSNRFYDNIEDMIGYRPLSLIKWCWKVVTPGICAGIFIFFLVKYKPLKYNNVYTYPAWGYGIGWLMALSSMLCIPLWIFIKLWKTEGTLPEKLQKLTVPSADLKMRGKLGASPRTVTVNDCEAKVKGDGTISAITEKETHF
Protocol: as §2

human recombinant beta-secretase (hBACE1), sequence (P56817 46-501): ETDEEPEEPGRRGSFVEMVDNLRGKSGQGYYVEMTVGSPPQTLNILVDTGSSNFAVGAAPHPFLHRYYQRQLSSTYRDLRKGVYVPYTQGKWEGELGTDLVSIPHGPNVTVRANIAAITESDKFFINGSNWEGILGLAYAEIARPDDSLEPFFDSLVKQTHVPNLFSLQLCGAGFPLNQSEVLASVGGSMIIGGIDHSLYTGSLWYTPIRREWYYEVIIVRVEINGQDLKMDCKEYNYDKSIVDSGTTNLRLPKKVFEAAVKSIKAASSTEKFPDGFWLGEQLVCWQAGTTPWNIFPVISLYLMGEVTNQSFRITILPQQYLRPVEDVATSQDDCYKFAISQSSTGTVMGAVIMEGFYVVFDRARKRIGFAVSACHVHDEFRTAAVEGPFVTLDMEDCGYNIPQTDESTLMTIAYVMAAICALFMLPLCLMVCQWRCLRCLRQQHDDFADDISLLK

SMILES | inhibition at 50 µM ([1]; 50 μM inhibitor concentration, read-out: hBACE-1 % inh) | inhibition at 10 µM [2] | IC50 [3] | percentage of [3H]GABA reuptake retained, mGAT2 [4] | pIC50 (+/−SEM) mGAT1 [5] | IC50 [6] | pIC50 (+/−SEM) mGAT3 [7] | IC50 [8] | IC50 ([1]; read-out: hBACE-1 IC50)
CC(C)(C)CNC[C@@H](O)[C@H](Cc1ccccc1)NC(=O)CC1c2ccccc2-c2ccccc21 [Compound 27, 2-(9H-fluoren-9-yl)-N-((2S,3R)-3-hydroxy-4-(neopentylamino)-1-phenylbutan-2-yl)acetamide] | 52.4% | 53.5% | 207 nM | 52% | 4.32 | 383 nM | 4.52 | 13800 nM | –
O=C(CC1c2ccccc2-c2ccccc21)N[C@@H](Cc1ccccc1)[C@H](O)CNCC1CC1 [Compound 28, N-((2S,3R)-4-((cyclopropylmethyl)amino)-3-hydroxy-1-phenylbutan-2-yl)-2-(9H-fluoren-9-yl)acetamide] | – | 73.4% | 246 nM | 10% | 4.87 | 1190 nM | 5.09 | 12600 nM | 12300 nM

Source: US12492163B2, “9H-fluorene derivatives or their pharmaceutically acceptable salts” (priority 2020, dated 2025)
